Earlier results on one molecule are cited in US4758437A, “Composition for long acting nicardipine preparation and process of producing the composition” (Yamanouchi Pharmaceutical Co., Ltd., priority 1987, dated 1988).

Turning to `COC(=O)C1=C(C)NC(C)=C(C(=O)OCCN(C)Cc2ccccc2)C1c1cccc([N+](=O)[O-])c1` (stereo not drawn) [nicardipine, 2,6-dimethyl-4-(3'-nitrophenyl)-1,4-dihydropyridine-3,5-dicarboxylic acid-3-methyl ester-5-β-(N-benzyl-N-methylamino)-ethyl ester], the “solubility in the first fluid of Japanese Pharmacopeia IX” value (about pH 1.2, nicardipine or its salt) is recorded as “good solubility”. The “solubility in the second fluid of Japanese Pharmacopeia IX” value (about pH 7.5) is “sparingly soluble”. For the setting “intestinal juice”, the “solubility in intestinal juice” value is given as “practically insoluble”.
